This note sets out measurements from ChEMBL document CHEMBL4364295, “Discovery of a First-in-Class Receptor Interacting Protein 2 (RIP2) Kinase Specific Clinical Candidate, 2-((4-(Benzo[d]thiazol-5-ylamino)-6-(tert-butylsulfonyl)quinazolin-7-yl)oxy)ethyl Dihydrogen Phosphate, for the Treatment of Inflammatory Diseases” (J Med Chem, 2019).

Data set [1] concerns the target T1, Receptor-interacting serine/threonine-protein kinase 2 (Homo sapiens, UniProt O43353). As to the kind of experiment: Inhibition of fluorescent-labelled ligand binding to human RIP2K preincubated for 10 mins followed by fluorescent-labelled ligand addition and measured after 10 mins by fluorescence polarization assay.
The nature of data set [2]: AUC in Sprague-Dawley rat at 20 mg/kg, po using crystalline sample during 7 day dose ranging study by LC/MS/MS analysis. The data set is classed as ADME, organism-based. The following applies: in vivo.
A short description of data set [3]: Clearance in Sprague-Dawley rat at 2 mg/kg, po or 0.5 mg/kg, iv by LC/MS/MS analysis. The data set is classed as ADME, organism-based. As to conditions: in vivo.
Data set [4] in a line: Solubility of the compound in FaSSIF measured after 4 hrs. It counts as physicochemical.
Data set [5] has as its target Tyrosine-protein kinase ABL2 (Homo sapiens) (UniProt P42684). As to the kind of experiment: Inhibition of human ABL2 at 1 uM using EAIYAAPFAKKK as substrate in presence of [gamma-33P]ATP relative to control.
The target in the next data set is T2, Toll-like receptor 7 (Homo sapiens, UniProt Q9NYK1).
T2 sequence (Q9NYK1 whole entry): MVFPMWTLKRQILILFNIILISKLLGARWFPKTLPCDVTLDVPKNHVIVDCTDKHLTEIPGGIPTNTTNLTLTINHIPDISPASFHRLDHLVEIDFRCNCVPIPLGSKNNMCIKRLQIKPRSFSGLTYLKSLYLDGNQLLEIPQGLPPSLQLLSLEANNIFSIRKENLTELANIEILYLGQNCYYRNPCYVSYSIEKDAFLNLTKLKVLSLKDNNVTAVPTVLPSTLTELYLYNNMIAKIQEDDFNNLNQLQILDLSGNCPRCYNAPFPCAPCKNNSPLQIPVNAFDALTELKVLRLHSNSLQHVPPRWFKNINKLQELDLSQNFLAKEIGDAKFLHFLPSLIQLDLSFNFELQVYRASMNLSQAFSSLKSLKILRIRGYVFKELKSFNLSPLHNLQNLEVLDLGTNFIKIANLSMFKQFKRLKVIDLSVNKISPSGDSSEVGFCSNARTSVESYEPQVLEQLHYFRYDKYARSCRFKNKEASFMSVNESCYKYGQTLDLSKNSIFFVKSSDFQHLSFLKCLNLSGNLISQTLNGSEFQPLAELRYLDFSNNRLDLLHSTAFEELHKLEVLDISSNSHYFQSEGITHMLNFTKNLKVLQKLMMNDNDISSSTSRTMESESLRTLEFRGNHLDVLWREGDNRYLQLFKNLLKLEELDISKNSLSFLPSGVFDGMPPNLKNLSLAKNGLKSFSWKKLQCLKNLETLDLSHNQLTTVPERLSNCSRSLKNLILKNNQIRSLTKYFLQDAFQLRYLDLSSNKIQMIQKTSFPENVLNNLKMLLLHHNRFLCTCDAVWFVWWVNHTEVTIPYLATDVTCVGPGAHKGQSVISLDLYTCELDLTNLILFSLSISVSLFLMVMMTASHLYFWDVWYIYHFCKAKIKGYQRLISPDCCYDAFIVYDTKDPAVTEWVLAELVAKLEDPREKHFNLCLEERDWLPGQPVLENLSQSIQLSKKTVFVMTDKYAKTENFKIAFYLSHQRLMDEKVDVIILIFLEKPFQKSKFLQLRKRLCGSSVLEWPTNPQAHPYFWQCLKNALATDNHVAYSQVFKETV
As to the kind of experiment: Inhibition of TLR7 in human monocytes assessed as reduction in gardiquimod-induced IL8 production. The data set is classed as cell-based.

The target of data set [6] is T1, Receptor-interacting serine/threonine-protein kinase 2. As to the kind of experiment: Inhibition of RIPK2 in human whole blood assessed as reduction in MDP-induced TNFalpha production preincubated for 30 mins followed by MDP-stimulation and measured after 6 hrs by immunoassay. It counts as tissue-based.
The target of data set [7] is Vascular endothelial growth factor receptor 2 (Homo sapiens) (UniProt P35968). The data set is described as follows: Inhibition of human VEGFR2 at 1 uM using poly[Glu:Tyr] (4:1) as substrate in presence of [gamma-33P]ATP relative to control.
The nature of data set [8]: Cmax in Beagle dog at 2 mg/kg, po by LC/MS/MS analysis. The data set is classed as ADME, organism-based, Canis lupus familiaris. Further details: dose 2 mg/kg, route oral. As to conditions: in vivo.
The target in data set [9] is Vascular endothelial growth factor receptor 3 (Homo sapiens) (UniProt P35916). As to the kind of experiment: Inhibition of human VEGFR3 at 1 uM using poly[Glu:Tyr] (4:1) as substrate in presence of [gamma-33P]ATP relative to control.
A short description of data set [10]: Cmax in Sprague-Dawley rat at 60 mg/kg, po using crystalline sample during 7 day dose ranging study by LC/MS/MS analysis. It counts as ADME, organism-based. More on the design: dose 60 mg/kg, route oral. The following applies: in vivo.
The target in data set [11] is T3, Interleukin-1 receptor type 1 (Homo sapiens, UniProt P14778).
T3 sequence (P14778 whole entry): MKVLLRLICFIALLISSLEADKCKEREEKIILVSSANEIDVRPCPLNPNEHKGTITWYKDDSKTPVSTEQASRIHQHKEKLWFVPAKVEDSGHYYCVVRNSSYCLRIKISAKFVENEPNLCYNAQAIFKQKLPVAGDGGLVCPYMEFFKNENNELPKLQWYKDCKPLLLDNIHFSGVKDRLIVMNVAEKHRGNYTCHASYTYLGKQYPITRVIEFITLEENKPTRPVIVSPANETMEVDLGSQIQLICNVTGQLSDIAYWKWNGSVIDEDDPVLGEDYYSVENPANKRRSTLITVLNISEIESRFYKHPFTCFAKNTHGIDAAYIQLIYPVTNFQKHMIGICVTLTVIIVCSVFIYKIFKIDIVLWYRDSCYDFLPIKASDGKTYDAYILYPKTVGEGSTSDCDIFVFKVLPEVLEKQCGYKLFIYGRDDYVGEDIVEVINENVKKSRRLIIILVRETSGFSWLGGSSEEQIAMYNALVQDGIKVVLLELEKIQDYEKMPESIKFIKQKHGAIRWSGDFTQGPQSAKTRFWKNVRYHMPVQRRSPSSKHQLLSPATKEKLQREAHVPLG
The data set is described as follows: Inhibition of IL1R in human monocytes assessed as reduction in IL1beta-induced TNFalpha production. It counts as cell-based.

A short description of data set [12]: AUC in Sprague-Dawley rat assessed as 2-((4-(Benzo[d]thiazol-5-ylamino)-6-(tert-butylsulfonyl)quinazolin-7-yl)oxy)ethanol level at 2 mg/kg, po by LC/MS/MS analysis. It counts as ADME, organism-based. The following applies: in vivo.
Data set [13] in a line: Half life in human blood. It counts as ADME, tissue-based.
Data set [14] can be described thus: Prodrug conversion in human hepatocytes assessed as 2-(4-(benzo[d]thiazol-5-ylamino)-6-(tert-butylsulfonyl)-1,2,3,4-tetrahydroquinazolin-7-yloxy)ethanol formation at 20 uM measured after 4 hrs. The data set is classed as ADME, cell-based, Hepatocyte.
The nature of data set [15]: Prodrug conversion in Han Wistar rat brain assessed as 2-((4-(Benzo[d]thiazol-5-ylamino)-6-(tert-butylsulfonyl)quinazolin-7-yl)oxy)ethanol formation at 2 mg/kg, iv administered as infusion for 4 hrs. It counts as ADME, organism-based. As to conditions: in vivo.
A short description of data set [16]: Prodrug conversion in minipig hepatocytes assessed as 2-((4-(Benzo[d]thiazol-5-ylamino)-6-(tert-butylsulfonyl)quinazolin-7-yl)oxy)ethanol formation at 20 uM measured after 4 hrs. The data set is classed as ADME, cell-based, Sus scrofa, Hepatocyte. The following applies: pig.
Data set [17] can be described thus: Oral bioavailability in Beagle dog assessed as 2-((4-(Benzo[d]thiazol-5-ylamino)-6-(tert-butylsulfonyl)quinazolin-7-yl)oxy)ethanol level at 2 mg/kg by LC/MS/MS analysis. It counts as ADME, organism-based, Canis lupus familiaris. As to conditions: in vivo.
Data set [18] is described as follows: Prodrug conversion in minipig hepatocytes assessed as (2S,3S,4S,5R,6R)-6-(2-(4-(benzo[d]thiazol-5-ylamino)-6-(tert-butylsulfonyl)quinazolin-7-yloxy)ethoxy)-3,4,5-trihydroxytetrahydro-2H-pyran-2-carboxylic acid formation at 20 uM measured after 4 hrs. As to conditions: pig. The data set is classed as ADME, cell-based, Sus scrofa, Hepatocyte.

In brackets after ≈: the same amount, converted by molar mass. Where only a bound is given, the exact number is not on record here.

T1 sequence (O43353 whole entry): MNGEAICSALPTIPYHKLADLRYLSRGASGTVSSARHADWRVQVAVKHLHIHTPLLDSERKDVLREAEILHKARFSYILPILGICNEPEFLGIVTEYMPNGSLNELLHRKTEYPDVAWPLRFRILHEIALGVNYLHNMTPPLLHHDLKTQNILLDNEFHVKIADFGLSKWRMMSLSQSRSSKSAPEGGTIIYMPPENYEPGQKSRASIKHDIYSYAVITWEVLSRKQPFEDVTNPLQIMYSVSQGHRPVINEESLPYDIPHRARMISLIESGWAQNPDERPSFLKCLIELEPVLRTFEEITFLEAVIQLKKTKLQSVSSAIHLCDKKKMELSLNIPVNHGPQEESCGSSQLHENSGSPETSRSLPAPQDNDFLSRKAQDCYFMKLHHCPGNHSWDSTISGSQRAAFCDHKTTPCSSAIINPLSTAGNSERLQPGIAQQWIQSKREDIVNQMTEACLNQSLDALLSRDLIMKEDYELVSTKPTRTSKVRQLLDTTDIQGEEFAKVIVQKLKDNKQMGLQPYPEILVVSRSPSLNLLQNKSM
Tyrosine-protein kinase ABL2 (Homo sapiens), sequence (P42684 whole entry): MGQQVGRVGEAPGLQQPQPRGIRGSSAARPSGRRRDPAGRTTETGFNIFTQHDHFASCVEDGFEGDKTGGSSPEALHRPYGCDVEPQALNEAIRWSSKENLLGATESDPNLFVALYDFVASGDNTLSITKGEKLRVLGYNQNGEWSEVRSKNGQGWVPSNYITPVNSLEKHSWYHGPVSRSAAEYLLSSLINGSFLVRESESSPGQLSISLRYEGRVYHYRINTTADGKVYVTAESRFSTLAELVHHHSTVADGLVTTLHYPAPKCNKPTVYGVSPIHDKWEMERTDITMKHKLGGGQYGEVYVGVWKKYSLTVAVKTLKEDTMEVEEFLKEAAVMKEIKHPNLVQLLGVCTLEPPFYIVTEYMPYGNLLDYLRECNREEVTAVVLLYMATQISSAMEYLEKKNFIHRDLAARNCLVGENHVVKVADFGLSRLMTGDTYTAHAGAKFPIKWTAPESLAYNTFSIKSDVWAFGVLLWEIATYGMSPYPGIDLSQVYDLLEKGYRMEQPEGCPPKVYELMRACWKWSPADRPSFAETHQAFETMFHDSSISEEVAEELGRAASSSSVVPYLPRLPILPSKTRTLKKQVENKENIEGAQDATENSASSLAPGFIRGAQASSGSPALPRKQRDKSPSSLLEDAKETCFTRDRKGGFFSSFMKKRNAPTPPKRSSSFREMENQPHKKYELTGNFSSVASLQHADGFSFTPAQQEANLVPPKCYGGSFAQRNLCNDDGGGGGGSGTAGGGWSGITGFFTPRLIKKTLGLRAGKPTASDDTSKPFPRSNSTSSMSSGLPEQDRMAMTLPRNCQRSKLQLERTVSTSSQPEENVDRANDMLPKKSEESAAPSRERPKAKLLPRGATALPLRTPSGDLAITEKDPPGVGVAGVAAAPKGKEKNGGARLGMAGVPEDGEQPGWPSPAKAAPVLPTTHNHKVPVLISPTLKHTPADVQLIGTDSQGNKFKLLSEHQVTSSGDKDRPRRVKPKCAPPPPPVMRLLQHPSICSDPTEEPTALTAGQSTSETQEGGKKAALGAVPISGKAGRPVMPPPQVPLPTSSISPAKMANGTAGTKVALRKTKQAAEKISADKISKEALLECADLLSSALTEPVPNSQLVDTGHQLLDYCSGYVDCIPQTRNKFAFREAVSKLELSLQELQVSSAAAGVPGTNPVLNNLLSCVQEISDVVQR
Vascular endothelial growth factor receptor 2 (Homo sapiens), sequence (P35968 whole entry): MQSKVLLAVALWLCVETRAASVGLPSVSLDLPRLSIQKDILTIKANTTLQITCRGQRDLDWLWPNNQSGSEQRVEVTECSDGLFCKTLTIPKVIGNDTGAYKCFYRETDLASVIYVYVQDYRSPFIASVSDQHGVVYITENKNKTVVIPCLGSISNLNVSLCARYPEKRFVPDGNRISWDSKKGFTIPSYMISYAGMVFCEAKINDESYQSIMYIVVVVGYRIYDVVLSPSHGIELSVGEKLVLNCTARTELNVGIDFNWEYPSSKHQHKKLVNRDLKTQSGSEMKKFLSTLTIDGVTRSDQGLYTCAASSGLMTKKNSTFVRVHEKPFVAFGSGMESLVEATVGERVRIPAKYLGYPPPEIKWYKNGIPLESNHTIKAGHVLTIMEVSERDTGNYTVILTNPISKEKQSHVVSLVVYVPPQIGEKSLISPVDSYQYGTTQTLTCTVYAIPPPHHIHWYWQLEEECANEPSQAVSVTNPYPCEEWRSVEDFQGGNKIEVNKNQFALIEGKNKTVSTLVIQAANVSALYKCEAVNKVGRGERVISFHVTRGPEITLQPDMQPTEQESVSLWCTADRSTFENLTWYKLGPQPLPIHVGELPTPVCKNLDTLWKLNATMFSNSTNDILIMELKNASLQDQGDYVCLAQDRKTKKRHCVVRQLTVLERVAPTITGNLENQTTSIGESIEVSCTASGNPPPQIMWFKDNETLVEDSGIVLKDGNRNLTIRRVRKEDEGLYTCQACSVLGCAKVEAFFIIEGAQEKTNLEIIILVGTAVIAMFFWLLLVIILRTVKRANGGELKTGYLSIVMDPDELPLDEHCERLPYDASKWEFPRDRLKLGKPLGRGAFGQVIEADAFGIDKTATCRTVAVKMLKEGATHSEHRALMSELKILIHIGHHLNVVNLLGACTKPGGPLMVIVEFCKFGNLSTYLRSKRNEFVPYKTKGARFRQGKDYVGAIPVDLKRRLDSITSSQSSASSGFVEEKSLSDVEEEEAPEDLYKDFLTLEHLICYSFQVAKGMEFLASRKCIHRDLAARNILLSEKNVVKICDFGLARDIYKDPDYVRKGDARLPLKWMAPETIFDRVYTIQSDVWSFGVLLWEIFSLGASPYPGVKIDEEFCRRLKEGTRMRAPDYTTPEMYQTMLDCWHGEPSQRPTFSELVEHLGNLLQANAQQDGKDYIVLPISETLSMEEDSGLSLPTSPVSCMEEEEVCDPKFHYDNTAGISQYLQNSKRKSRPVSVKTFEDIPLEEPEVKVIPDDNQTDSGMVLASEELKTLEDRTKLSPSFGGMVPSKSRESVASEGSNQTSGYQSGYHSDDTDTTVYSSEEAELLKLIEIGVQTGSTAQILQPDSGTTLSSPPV
Vascular endothelial growth factor receptor 3 (Homo sapiens), sequence (P35916 whole entry): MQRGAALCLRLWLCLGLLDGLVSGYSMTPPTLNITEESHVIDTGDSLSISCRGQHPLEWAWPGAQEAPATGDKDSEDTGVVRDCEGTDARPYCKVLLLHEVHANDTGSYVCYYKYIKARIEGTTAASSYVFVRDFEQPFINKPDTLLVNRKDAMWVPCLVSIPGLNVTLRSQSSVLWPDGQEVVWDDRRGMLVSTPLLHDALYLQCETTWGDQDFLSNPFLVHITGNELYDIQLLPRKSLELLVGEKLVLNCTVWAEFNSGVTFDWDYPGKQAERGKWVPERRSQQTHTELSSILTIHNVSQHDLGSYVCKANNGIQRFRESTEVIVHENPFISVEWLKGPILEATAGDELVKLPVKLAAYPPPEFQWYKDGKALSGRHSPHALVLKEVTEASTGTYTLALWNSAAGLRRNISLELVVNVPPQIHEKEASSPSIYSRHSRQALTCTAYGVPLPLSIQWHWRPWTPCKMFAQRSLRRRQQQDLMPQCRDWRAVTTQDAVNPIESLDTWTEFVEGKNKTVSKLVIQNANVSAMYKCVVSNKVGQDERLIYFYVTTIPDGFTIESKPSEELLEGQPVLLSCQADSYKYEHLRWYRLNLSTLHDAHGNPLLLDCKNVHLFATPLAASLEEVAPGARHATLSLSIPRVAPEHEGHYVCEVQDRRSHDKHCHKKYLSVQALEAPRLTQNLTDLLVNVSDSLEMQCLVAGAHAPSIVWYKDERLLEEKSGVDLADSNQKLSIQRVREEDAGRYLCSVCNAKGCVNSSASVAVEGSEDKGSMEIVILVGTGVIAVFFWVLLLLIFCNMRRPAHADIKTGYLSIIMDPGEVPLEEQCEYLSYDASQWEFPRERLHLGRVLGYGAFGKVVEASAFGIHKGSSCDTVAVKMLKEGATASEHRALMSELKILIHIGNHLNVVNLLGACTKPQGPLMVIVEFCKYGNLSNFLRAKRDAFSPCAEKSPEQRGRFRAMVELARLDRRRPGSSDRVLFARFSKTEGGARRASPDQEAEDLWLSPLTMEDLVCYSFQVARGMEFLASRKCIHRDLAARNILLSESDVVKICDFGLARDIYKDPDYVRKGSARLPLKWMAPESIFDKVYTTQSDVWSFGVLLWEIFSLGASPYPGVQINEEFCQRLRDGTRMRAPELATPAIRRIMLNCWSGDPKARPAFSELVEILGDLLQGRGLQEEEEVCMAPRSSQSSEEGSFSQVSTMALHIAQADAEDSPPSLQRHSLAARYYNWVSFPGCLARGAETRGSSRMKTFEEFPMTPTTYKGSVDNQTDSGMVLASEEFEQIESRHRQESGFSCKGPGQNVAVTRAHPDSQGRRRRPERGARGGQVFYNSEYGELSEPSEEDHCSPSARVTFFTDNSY

One may read the IC50 as the concentration that inhibits the measured activity by half. By AUC is commonly meant the area under the concentration-time curve, a measure of exposure. A word on the solubility: it is how much of the substance goes into solution per volume. A higher solubility goes with a readily soluble substance. One may read the inhibition as the relative decrease from the control value, in per cent. By Cmax is commonly meant the highest concentration seen after dosing. `CC(C)(C)S(=O)(=O)c1cc2c(Nc3ccc4scnc4c3)ncnc2cc1OCCO`: the IC50 in data set [1] is 5 nM; on Toll-like receptor 7 it was above 10 µM; in data set [6], 26 nM; in data set [11], above 10 µM. This compound also had an AUC at 168 h in data set [2] of 8800 ng·h/mL. In addition, in data set [3], the clearance was found to be 27 mL/min/kg. In [4], this compound registered a solubility at 4 h of 4 µg/mL (≈ 8.72 µM). The inhibition was 70 to 90% in [5], 70 to 90% in data set [7] and above 90% in data set [9]. For the same compound, the Cmax in data set [8] was found to be 470 ng/mL; in data set [10], 2100 ng/mL.

One may read the half-life as the time in which the quantity being followed falls by half. Low readings indicate fast loss, high ones slow loss. Take `CC(C)(C)S(=O)(=O)c1cc2c(Nc3ccc4scnc4c3)ncnc2cc1OCCOP(=O)(O)O.[CaH2]`: the AUC in [12] is 560 ng·h/mL. The compound also registered a half-life in data set [13] of 25 min. For the same compound, the Drug metabolism entry in [14], in data set [15], in data set [16] and in data set [18] was “Metabolite_Detected” throughout. The F in [17] was 100%.
